Like-named read-outs stand apart in the source and are kept apart here.
Tests used:
SOS1 = biological target: T1, SOS1 (Homo sapiens, UniProt Q07889); assay: SOS-catalyzed nucleotide exchange assay (HTRF, SOS1-mediated GTP loading of KRAS G12D); format: biochemical; settings: GST-KRAS G12D, HIS-SOS1cat, compound 128 pM to 10 µM; read-out: SOS-catalyzed nucleotide exchange assay
T1 construct: HIS-SOS1cat (160 nM; Cytoskeleton, US); His (N); purchased Cytoskeleton
T1 sequence (Q07889 564-1049 limits assumed): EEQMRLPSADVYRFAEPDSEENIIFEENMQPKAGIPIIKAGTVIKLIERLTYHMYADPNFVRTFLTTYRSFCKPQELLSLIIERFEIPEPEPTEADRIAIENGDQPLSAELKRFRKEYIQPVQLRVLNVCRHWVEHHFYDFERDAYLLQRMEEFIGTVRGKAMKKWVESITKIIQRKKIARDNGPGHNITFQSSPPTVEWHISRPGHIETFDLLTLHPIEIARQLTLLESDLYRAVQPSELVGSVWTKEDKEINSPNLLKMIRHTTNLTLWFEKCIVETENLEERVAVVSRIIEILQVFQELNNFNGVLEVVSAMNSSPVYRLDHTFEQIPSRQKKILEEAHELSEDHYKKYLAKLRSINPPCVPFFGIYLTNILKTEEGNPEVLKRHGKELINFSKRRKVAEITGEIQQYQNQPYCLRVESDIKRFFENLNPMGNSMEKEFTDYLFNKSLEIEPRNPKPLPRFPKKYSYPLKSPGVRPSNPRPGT
Method: SOS1 activity was measured by SOS1-mediated GTP loading quantification of KRAS^G12D. GTP loaded KRAS^G12D was detected by HTRF (Homogeneous Time Resolved Fluorescence) using anti-GST terbium (Cisbio, France) as a donor and a fluorescence GTP analogue (EDA-GTP-DY-647P1, [DY-647P1 labeled 2'/3'-O-(2-aminoethyl-carbamoyl)guanosine-5'-triphosphate (Jena bioscience, Germany)]) as an acceptor.
KRAS^G12D working solution was prepared by adding equal amounts of GST-KRAS^G12D (100 nM) and anti-GST-terbium (2 nM; Cisbio, France) to the assay buffer and culturing on ice for 10 minutes. […] Control solution was prepared by adding equal volumes of EDA-GTP-DY-647P1 and the assay buffer for normalization control to exclude GEF-independent GTP loading and background signals.
10 uL of the KRAS^G12D solution was added to each well and incubated for 30 minutes at room temperature while shaking. HTRF was measured using a Thermo Varioskan (excitation 334 nm, emission 665 nm). The IC50 of each inhibitor was analyzed using Graphad Prism.

KRAS G12C::SOS1 = biological target: T2, KRAS G12C::SOS1 (Homo sapiens, UniProt Q07889); assay: KRAS G12C::SOS1 protein-protein interaction (PPI) inhibition assay (HTRF); format: binding
T2 construct: purchased CISBIO 64KRASG12PEH
T2 sequence (Q07889 1-1333): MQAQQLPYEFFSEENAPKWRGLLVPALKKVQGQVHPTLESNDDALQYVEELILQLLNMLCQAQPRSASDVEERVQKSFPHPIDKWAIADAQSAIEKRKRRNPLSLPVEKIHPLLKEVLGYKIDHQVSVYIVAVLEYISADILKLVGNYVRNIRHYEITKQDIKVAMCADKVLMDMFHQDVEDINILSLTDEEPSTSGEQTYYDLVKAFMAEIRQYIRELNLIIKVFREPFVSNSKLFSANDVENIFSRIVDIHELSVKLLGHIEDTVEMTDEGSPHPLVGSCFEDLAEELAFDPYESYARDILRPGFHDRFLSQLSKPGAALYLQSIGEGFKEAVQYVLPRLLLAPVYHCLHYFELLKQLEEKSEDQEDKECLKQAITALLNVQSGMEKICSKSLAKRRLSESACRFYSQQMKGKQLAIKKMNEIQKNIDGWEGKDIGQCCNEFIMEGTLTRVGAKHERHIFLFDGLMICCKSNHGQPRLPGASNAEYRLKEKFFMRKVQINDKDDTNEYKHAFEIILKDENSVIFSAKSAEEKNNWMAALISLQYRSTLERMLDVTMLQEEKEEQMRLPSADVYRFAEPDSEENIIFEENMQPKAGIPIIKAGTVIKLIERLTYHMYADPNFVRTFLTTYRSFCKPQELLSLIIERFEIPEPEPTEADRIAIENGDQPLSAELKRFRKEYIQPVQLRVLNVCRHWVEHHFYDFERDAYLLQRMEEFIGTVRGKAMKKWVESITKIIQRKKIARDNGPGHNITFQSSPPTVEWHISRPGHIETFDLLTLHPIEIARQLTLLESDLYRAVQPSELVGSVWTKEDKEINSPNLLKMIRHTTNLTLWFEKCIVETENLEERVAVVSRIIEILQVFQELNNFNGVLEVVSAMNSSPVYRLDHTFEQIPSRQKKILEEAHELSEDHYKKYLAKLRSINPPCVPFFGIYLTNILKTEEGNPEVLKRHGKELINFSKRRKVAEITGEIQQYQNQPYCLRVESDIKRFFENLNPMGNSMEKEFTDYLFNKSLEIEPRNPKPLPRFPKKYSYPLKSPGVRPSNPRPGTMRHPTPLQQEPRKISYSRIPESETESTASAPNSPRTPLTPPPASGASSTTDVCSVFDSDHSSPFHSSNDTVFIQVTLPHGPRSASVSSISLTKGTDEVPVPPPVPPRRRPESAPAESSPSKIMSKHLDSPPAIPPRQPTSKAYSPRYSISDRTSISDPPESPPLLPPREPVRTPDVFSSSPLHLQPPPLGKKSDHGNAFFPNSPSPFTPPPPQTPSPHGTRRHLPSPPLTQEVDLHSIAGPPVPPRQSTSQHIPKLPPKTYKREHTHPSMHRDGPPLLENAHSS
Method: Protein-protein interaction between SOS1 and KRAS^G12c was detected using KRAS G12C/SOS1 binding kit from CISBIO (64KRASG12PEH, CISBIO, FRANCE) according to the manufacturer's assay method. Briefly, the maximum concentration of an inhibitor sample was set to be 3 µM, and the inhibitor sample was diluted 7 times by 1/3, and samples having a total of 8 concentrations were prepared. In HTRF (Homogeneous Time-Resolved Fluorescence) exclusive 96-well low-volume white plate (66PL96005, CISBIO, FRANCE), 2 µL of an inhibitor sample prepared for each concentration, 5 µL of a mixed solution of Tag1 labeled KRAS^G12c protein and GTP diluted with the dilution solution provided by the manufacturer, and 5 µL of Tag2 labeled SOS1 protein were mixed, and added with 8 µL of a diluted solution where anti-Tag1 KRAS^G12C XL665 (HTRF acceptor) labeled antibody and anti-Tag2 SOS1 Terbium cryptate (HTRF donor) labeled antibody were mixed in an equal ratio and cultured at room temperature for 2 h.

[1] = 8 concentrations from 3 µM, three replicates, read-out: KRAS G12C::SOS1 PPI

Compound | IC50 (SOS1) | IC50 (KRAS G12C::SOS1; [1]) | also measured
C[C@@H](NC(=O)c1cc(C#N)c(=O)n(-c2cc(-c3cnnn3C)cnc2F)n1)c1cccc(C(F)(F)CO)c1F [Example 3-3] | < 50 nM | < 50 nM | –
[2H][C@](C)(NC(=O)c1ccc(=O)n(-c2cncc(-c3cnnn3C)c2)n1)c1cccc(C(F)(F)F)c1F [Example 1-34, N-[(1R)-1-deuterio-1-[2-fluoro-3-(trifluoromethyl)phenyl]ethyl]-1-[5-(3-methyltriazol-4-yl)-3-pyridyl]-6-oxo-pyridazine-3-carboxamide] | 50 to 150 nM | < 50 nM | –
C[C@@H](NC(=O)c1ccc(=O)n(-c2cncc(-c3cnnn3C)c2)n1)c1cccc(C2=CCC2)c1F (single isomer, unassigned) [Example 17] | – | > 150 nM | –
CNc1ncc(-n2nc(C(=O)N[C@H](C)c3cccc(C(F)(F)F)c3F)ccc2=O)cc1-c1cnnn1C [Example 1-45, N-{(R)-1-[2-fluoro-3-(trifluoromethyl)phenyl]ethyl}-1-[6-(methylamino)-5-(1-methyl-1H-1,2,3-triazol-5-yl)-3-pyridyl]-6-oxo-1,6-dihydropyridazine-3-carboxamide] | – | 50 to 150 nM | –
COc1ncc(-n2nc(C(=O)N[C@H](C)c3cccc(C(F)(F)F)c3F)ccc2=O)cc1-c1cnnn1C [Example 6-5, N-{(R)-1-[2-fluoro-3-(trifluoromethyl)phenyl]ethyl}-1-[6-methoxy-5-(1-methyl-1H-1,2,3-triazol-5-yl)-3-pyridyl]-6-oxo-1,6-dihydropyridazine-3-carboxamide] | – | 50 to 150 nM | –
C[C@@H](NC(=O)c1cc(C(F)(F)F)c(=O)n(-c2cncc(-c3cnnn3C)c2)n1)c1cccc(C(F)(F)CO)c1F [Example 1-72, (R)-N-(1-(3-(1,1-difluoro-2-hydroxyethyl)-2-fluorophenyl)ethyl)-1-(5-(1-methyl-1H-1,2,3-triazol-5-yl)pyridin-3-yl)-6-oxo-5-(trifluoromethyl)-1,6-dihydropyridazine-3-carboxamide] | < 50 nM | – | –
Cc1ncc(-n2nc(C(=O)N[C@H](C)c3cccc(C(F)F)c3F)ccc2=O)cc1-c1cnnn1C [Example 1-47, N-{(R)-1-[3-(difluoromethyl)-2-fluorophenyl]ethyl}-1-[6-methyl-5-(1-methyl-1H-1,2,3-triazol-5-yl)-3-pyridyl]-6-oxo-1,6-dihydropyridazine-3-carboxamide] | – | > 150 nM | –
C[C@@H](NC(=O)c1ccc(=O)n(-c2cncc(-c3cnnn3C3COC3)c2)n1)c1cccc(C(F)(F)CO)c1F [Example 1-70, (R)-N-(1-(3-(1,1-difluoro-2-hydroxyethyl)-2-fluorophenyl)ethyl)-1-(5-(1-(oxetan-3-yl)-1H-1,2,3-triazol-5-yl)pyridin-3-yl)-6-oxo-1,6-dihydropyridazine-3-carboxamide] | < 50 nM | – | –
[2H]C([2H])(O)C(F)(F)c1cccc([C@@H](C)NC(=O)c2ccc(=O)n(-c3cncc(-c4cnnn4C4COC4)c3)n2)c1F [Example 1-71, (R)-N-(1-(3-(1,1-difluoro-2-hydroxyethyl-2,2-dideuterio)-2-fluorophenyl)ethyl)-1-(5-(1-(oxetan-3-yl)-1H-1,2,3-triazol-5-yl)pyridin-3-yl)-6-oxo-1,6-dihydropyridazine-3-carboxamide] | < 50 nM | – | –
C[C@@H](NC(=O)c1ccc(=O)n(-c2cncc(-c3cnnn3C)c2)n1)c1cccc(C(F)(F)F)c1Cl [Example 1-31, N-[(1R)-1-[2-chloro-3-(trifluoromethyl)phenyl]ethyl]-1-[5-(3-methyltriazol-4-yl)-3-pyridyl]-6-oxo-pyridazine-3-carboxamide] | – | 50 to 150 nM | –
C[C@@H](NC(=O)c1ccc(=O)n(-c2cncc(-c3cnnn3C)c2)n1)c1cccc(C2(CO)CC2)c1F [Example 1-32, N-[(1R)-1-[2-fluoro-3-[1-(hydroxymethyl)cyclopropyl]phenyl]ethyl]-1-[5-(3-methyltriazol-4-yl)-3-pyridyl]-6-oxo-pyridazine-3-carboxamide] | – | – | IC50 (KRAS G12C::SOS1; read-out: KRAS G12C::SOS1 PPI, 8 concentrations from 3 µM, three replicates): > 150 nM
COCC1(c2cccc([C@@H](C)NC(=O)c3ccc(=O)n(-c4cncc(-c5cnnn5C)c4)n3)c2F)CC1 [Example 18, N-[(1R)-1-[2-fluoro-3-[1-(methoxymethyl)cyclopropyl]phenyl]ethyl]-1-[5-(3-methyltriazol-4-yl)-3-pyridyl]-6-oxo-pyridazine-3-carboxamide] | – | – | IC50 (KRAS G12C::SOS1): > 150 nM
C[C@@H](NC(=O)c1ccc(=O)n(-c2cnc(N(C)C)c(-c3cnnn3C)c2)n1)c1cccc(C(F)(F)F)c1F [Example 6-6, N-{(R)-1-[2-fluoro-3-(trifluoromethyl)phenyl]ethyl}-1-[6-(dimethylamino)-5-(1-methyl-1H-1,2,3-triazol-5-yl)-3-pyridyl]-6-oxo-1,6-dihydropyridazine-3-carboxamide] | – | 50 to 150 nM | –
Cc1ncc(-n2nc(C(=O)N[C@H](C)c3cccc(C(F)(F)CO)c3C)ccc2=O)cc1-c1cnnn1C [Example 1-28, N-[(1R)-1-[3-(1,1-difluoro-2-hydroxy-ethyl)-2-methyl-phenyl]ethyl]-1-[6-methyl-5-(3-methyltriazol-4-yl)-3-pyridyl]-6-oxo-pyridazine-3-carboxamide] | – | > 150 nM | –
C[C@@H](NC(=O)c1ccc(=O)n(-c2cncc(-c3cnnn3C)c2)n1)c1cccc(C2(CF)CC2)c1F (single isomer, unassigned) [Example 16] | – | > 150 nM | –
C[C@@H](NC(=O)c1cc(N[C@H](C)c2cccc(C(F)(F)F)c2F)c(=O)n(-c2cncc(-c3cnnn3C)c2)n1)c1cccc(C(F)(F)F)c1F [Example 1-44, N-{(R)-1-[2-fluoro-3-(trifluoromethyl)phenyl]ethyl}-5-{(R)-1-[2-fluoro-3-(trifluoromethyl)phenyl]ethylamino}-1-[5-(1-methyl-1H-1,2,3-triazol-5-yl)-3-pyridyl]-6-oxo-1,6-dihydropyridazine-3-carboxamide] | – | > 150 nM | –
